Laboratory results: US8871934B2, “Fluorene compound and pharmaceutical use thereof” (Japan Tobacco Inc., priority 2008, dated 2014)
Where two headings read alike, the source gives them in different places.

Molecular target: human PDHK2 (hPDHK2) (Homo sapiens (Human), UniProt Q15119)
Assay: Inhibitory action of PDHK activity in vitro (kinase reaction, residual PDH activity measured)
Type: biochemical
[1] = PDHK inhibitory activity, class symbol of IC50
[2] = read-out: PDHK inhibitory activity IC50
[3] = PDHK inhibitory activity (class symbol)

Compound | IC50 [1] | IC50 [2] | IC50 [3] | IC50 (class symbol of IC50, read-out: PDHK inhibitory activity)
CCOC(=O)CCCOc1ccc2c(c1)C(O)(C(F)(F)F)c1ccccc1-2 (stereo not shown) [compound 257] | 100 to 1000 nM | 567 nM | – | –
O=C(c1cnc2c(c1)C(O)(C(F)(F)F)c1ccccc1-2)N1CCC1 (stereo not shown) [compound 213] | 100 to 1000 nM | 173 nM | – | –
COC(=O)C1CCN(c2ccc3c(c2)C(O)(C(F)(F)F)c2ccccc2-3)CC1 (stereo not shown) [compound 218] | > 1000 nM | 1840 nM | – | –
CC(C)Cc1cc(-c2cnn(C(CO)CO)c2)c2c(c1)C(O)(C(F)(F)F)c1ccccc1-2 (single isomer, unassigned) [compound 665] | – | 23 nM | < 100 nM | –
CNc1ccc2c(c1)C(O)(C(F)(F)F)c1ccccc1-2 (stereo not shown) [compound 95] | > 1000 nM | 7830 nM | – | –
COC(=O)c1cc(Br)c2c(c1)C(O)(C(F)(F)F)c1ccccc1-2 (single isomer, unassigned) [compound 473] | < 100 nM | 90 nM | – | –
Cc1cc(C(=O)N2CCC2)cc2c1-c1ccccc1C2(O)C(F)(F)F (single isomer, unassigned) [compound 135] | – | > 1000 nM | – | > 1000 nM
CN(C)C(=O)COC1CN(C(=O)c2ccc3c(c2)C(O)(C(F)(F)F)c2ccccc2-3)C1 (stereo not shown) [compound 118] | 100 to 1000 nM | 839 nM | – | –
OC1(C(F)(F)F)c2ccccc2-c2c(Cl)cc(Cl)cc21 (stereo not shown) [compound 21] | 100 to 1000 nM | 302 nM | – | –
OCCn1cc(-c2cc(CO)c3c(c2)C(O)(C(F)(F)F)c2ccccc2-3)cn1 (stereo not shown) [compound 615] | – | 105 nM | 100 to 1000 nM | –
CCCc1cc(-c2cnn(C(CO)CO)c2)c2c(c1)C(O)(C(F)(F)F)c1ccccc1-2 (stereo not shown) [compound 652] | – | 36 nM | < 100 nM | –
O=C1CCC(COc2ccc3c(c2)C(O)(C(F)(F)F)c2ccccc2-3)N1 (stereo not shown) [compound 419] | 100 to 1000 nM | 504 nM | – | –
OCCCCCOc1cc(-c2cncnc2)c2c(c1)C(O)(C(F)(F)F)c1ccccc1-2 (stereo not shown) [compound 406] | < 100 nM | 25 nM | – | –
CN(CC(=O)O)C(=O)COc1ccc2c(c1)C(O)(C(F)(F)F)c1ccccc1-2 (stereo not shown) [compound 462] | > 1000 nM | 5980 nM | – | –
Cn1cc(-c2cc(OC(CO)CO)cc3c2-c2ccccc2C3(O)C(F)(F)F)cn1 (stereo not shown) [compound 628] | – | 58 nM | < 100 nM | –
CC(C)(C)Cn1cc(-c2cc(CO)c3c(c2)C(O)(C(F)(F)F)c2ccccc2-3)cn1 (stereo not shown) [compound 650] | – | 36 nM | < 100 nM | –
CN(C)CCCOc1ccc2c(c1)C(O)(C(F)(F)F)c1ccccc1-2 (stereo not shown) [compound 333] | 100 to 1000 nM | 924 nM | – | –
Cc1n[nH]c(-c2cccc3c2-c2ccccc2C3(O)C(F)(F)F)n1 (stereo not shown) [compound 313] | > 1000 nM | > 10000 nM | – | –
CCn1cc(-c2cc(CO)c3c(c2)C(O)(C(F)(F)F)c2ccccc2-3)cn1 (single isomer, unassigned) [compound 629, 4-hydroxymethyl-2-(1-ethyl-1H-pyrazol-4-yl)-9-trifluoromethyl-9H-fluoren-9-ol] | – | 45 nM | < 100 nM | –
OC1(C(F)(F)F)c2ccccc2-c2ccc(N3CCCCC3)cc21 (stereo not shown) [compound 148] | > 1000 nM | 8450 nM | – | –
CC(=O)N(C)CCn1cc(-c2cccc3c2-c2ccccc2C3(O)C(F)(F)F)cn1 (stereo not shown) [compound 535] | 100 to 1000 nM | 197 nM | – | –
CN(C)C(=O)CCn1cc(-c2cccc3c2-c2ccccc2C3(O)C(F)(F)F)cn1 (stereo not shown) [compound 488] | < 100 nM | 52 nM | – | –

Compound | IC50 [1] | IC50 [2] | IC50 [3] | IC50 (class symbol of IC50, read-out: PDHK inhibitory activity)
NC(=O)c1cc(-c2cncnc2)cc2c1-c1ccccc1C2(O)C(F)(F)F (stereo not shown) [compound 658] | – | 71 nM | < 100 nM | –
OCc1ccccc1-c1ccc2c(c1)C(O)(C(F)(F)F)c1ccccc1-2 (stereo not shown) [compound 189] | > 1000 nM | 6000 nM | – | –
COC(=O)C1CCN1C(=O)c1ccc2c(c1)C(O)(C(F)(F)F)c1ccccc1-2 (stereo not shown) [compound 304] | 100 to 1000 nM | 723 nM | – | –
COc1cc(-c2cnn(CCCC(=O)O)c2)c2c(c1)C(O)(C(F)(F)F)c1ccccc1-2 (single isomer, unassigned) [compound 589] | < 100 nM | 25 nM | – | –
Cn1cc(-c2cc(OCCCC(=O)O)cc3c2-c2ccccc2C3(O)C(F)(F)F)cn1 (single isomer, unassigned) [compound 504, 4-[9-hydroxy-4-(1-methyl-1H-pyrazol-4-yl)-9-trifluoromethyl-9H-fluoren-2-yloxy]-butyric acid] | < 100 nM | 19 nM | – | –
CC(C)Oc1ccc2c(c1)C(O)(C(F)(F)F)c1ccccc1-2 (stereo not shown) [compound 110] | > 1000 nM | 2490 nM | – | –
Cn1cc(-c2cc(OCC(=O)N3CC(CO)C3)cc3c2-c2ccccc2C3(O)C(F)(F)F)cn1 (single isomer, unassigned) [compound 474] | < 100 nM | 19 nM | – | –
CCOc1cccc2c1-c1ccccc1C2(O)C(F)(F)F (stereo not shown) [compound 66] | > 1000 nM | 66300 nM | – | –
OC1(C(F)(F)F)c2ccccc2-c2ccc(-c3ccsc3)cc21 (stereo not shown) [compound 145] | > 1000 nM | 1380 nM | – | –
Cn1cc(-c2cc(OCCCCCO)cc3c2-c2ccccc2C3(O)C(F)(F)F)cn1 (stereo not shown) [compound 407] | < 100 nM | 31 nM | – | –
Cc1ccc2c(c1)C(O)(C(F)(F)F)c1cccc(C)c1-2 (stereo not shown) [compound 17] | > 1000 nM | 13900 nM | – | –
O=C(O)COC1CN(C(=O)c2ccc3c(c2)C(O)(C(F)(F)F)c2ccccc2-3)C1 (stereo not shown) [compound 107] | > 1000 nM | 2610 nM | – | –
CN(CCO)C(=O)c1ccc2c(c1)C(O)(C(F)(F)F)c1ccccc1-2 (stereo not shown) [compound 297] | > 1000 nM | 3030 nM | – | –
Cc1cc(-c2cnn(CC(CO)CO)c2)c2c(c1)C(O)(C(F)(F)F)c1ccccc1-2 (single isomer, unassigned) [compound 663] | – | 18 nM | < 100 nM | –
OC1(C(F)(F)F)c2ccccc2-c2ccc(-n3cccn3)cc21 (stereo not shown) [compound 560] | 100 to 1000 nM | 970 nM | – | –
COC(=O)c1cc(-c2cncnc2)c2c(c1)C(O)(C(F)(F)F)c1ccccc1-2 (stereo not shown) [compound 364] | 100 to 1000 nM | 178 nM | – | –
Cc1cc(C(=O)N2CC(OCCO)C2)cc2c1-c1ccccc1C2(O)C(F)(F)F (single isomer, unassigned) [compound 152] | < 100 nM | 54 nM | – | –
CNC(=O)CCCCOc1ccc2c(c1)C(O)(C(F)(F)F)c1ccccc1-2 (stereo not shown) [compound 305] | 100 to 1000 nM | 562 nM | – | –
CN(C)C(=O)C1CN(C(=O)c2ccc3c(c2)C(O)(C(F)(F)F)c2ccccc2-3)C1 (stereo not shown) [compound 125] | 100 to 1000 nM | 227 nM | – | –
CC(C)(C)OC(=O)NCCOc1ccc2c(c1)C(O)(C(F)(F)F)c1ccccc1-2 (stereo not shown) [compound 323] | 100 to 1000 nM | 362 nM | – | –
NC(=O)c1cc(-c2cnn(CC3CCCCC3)c2)cc2c1-c1ccccc1C2(O)C(F)(F)F (single isomer, unassigned) [compound 667, 2-(1-cyclohexylmethyl-1H-pyrazol-4-yl)-9-hydroxy-9-trifluoromethyl-9H-fluorene-4-carboxylic acid amide] | – | 15 nM | < 100 nM | –
CC(C)(C)Cn1cc(-c2cccc3c2-c2ccccc2C3(O)C(F)(F)F)cn1 (stereo not shown) [compound 524] | < 100 nM | 87 nM | – | –
